Patent publication US20160227783A1, “AGROCHEMICAL FORMULATION AID FOR MICRONUTRIENT UPTAKE IN PLANTS, PLANT HEALTH BENEFITS AND HERBICIDE PERFORMANCE” (Adjuvants Plus USA, INC., priority 2015, published 2016)
Marks after values point to notes of the source that are not given here.

Legend:
Velvetleaf = assay: Influence of water conditioners on the control of velvetleaf 21 DAT in the greenhouse; conditions: velvetleaf 21 DAT greenhouse
[1] = system: glyphosate resistant canola Nexera 1012; assay: Canola leaf tissue mineral composition after glyphosate with or without Composition 2; format: in vivo; conditions: for % K / % N / % P / % S / Fe ppm / Mn ppm / Zn ppm: Control: glyphosate 0.45 kg/ha alone
Procedure: (§1) A trial was conducted to evaluate the effect of early and or late application of glyphosate with Composition 2 on yield of glyphosate resistant canola. The RR canola was Nexera 1012. The trial was conducted on a silt loam soil with 40-47% sand, 30-50% silt and 10-23% clay, 1.4-2.9% organic matter, and pH of 6.4-8.2. The plot was planted to field pea and then hard red spring wheat the previous two years. Treatments were arranged in a randomized complete block design with four (4) replications each while the control (no-Composition 2) was replicated only twice. Plots were seeded with Nexera 1012 at seeding depth of about 1.2 to 2.5 cm, 10° C. soil temperature and plant population of approximately 110-115 seeds m2. Plants were fertilized with 87-31-9-22 N—P—K—S pounds per acre via spreading urea and potash and putting phosphorus (Alpine and 11-52-0) and sulfur through the drill. In-crop application of glyphosate at a rate of 0.45 kg ha-1 (180 g/ac) with Composition 2 at 1 L/ac was applied at 3-4 leaf stage (Early application), 6 leaf stage (Normal application), after 10 leaf stage (late) and at both 3-4 leaf and after 10 leaf stages (Early/late application). The control treatments were sprayed with glyphosate alone. Each treatment was replicated four (4) times except the control treatment which had only two (2) replications.
(§2) Plant leaf tissues were collected at one and two weeks after spraying within each treatment to determine the mineral compositions. At physiological maturity with 70% of the seeds on the main raceme turned black, plants were swathed and allowed to cure for three weeks before being combined. Prior to swathing, fifty randomly selected plants were used for seed yield and yield components analysis. Data on number of fruits/plant, percent seed oil and seed protein were collected and analysed. An area of […] of swath for each plot was combined and used for yield (bu/ac) determination. Seed yield (bu/ac) from combine was adjusted to 8% seed moisture content. Variables response to treatments were compared by analysis of variance (ANOVA) by using SPSS statistical software and mean values were subjected to ANOVA and significant means at F<0.05 were separated by the Duncan's multiple range test.

[2] = system: glyphosate resistant canola Nexera 1012; assay: Canola field trial: flowering, yield components, oil, protein and seed yield; format: in vivo
Procedure: as §1, §2

[3] = canola leaf tissue one week after application, Control: glyphosate alone
[4] = canola leaf tissue one week after spraying
[5] = canola leaf tissue two weeks after spraying
[6] = canola, Control: glyphosate 0.45 kg/ha alone

## O=C(O)COc1ccc(Cl)cc1Cl [2,4-D Acid, 2,4-D]
Velvetleaf; 2,4-D Acid (Rugged) 0.1 kg a.e/ha, herbicide alone
  2,4-D Acid (% control): 31 g %

## COc1c(Cl)ccc(Cl)c1C(=O)O.NCCOCCO [Dicamba DGA, dicamba diglycolamine]
Velvetleaf; Dicamba DGA (Clarity) 0.034 kg a.e/ha, herbicide alone
  Dicamba DGA (% control): 36 g %

## CNC.O=C(O)COc1ccc(Cl)cc1Cl [2,4-D DMA, 2,4-D Dimethylamine]
Velvetleaf; 2,4-D DMA 0.1 kg a.e./ha, herbicide alone
  2,4-D DMA (% control): 29 g %

## O=C(O)CNCP(=O)(O)O [glyphosate]
[1]; [3]
  Fe reduction: 22.7%
  Mn concentration drop from the initial concentration: 13.4%
  Zn concentration drop from the initial concentration: 14.5%
[1]; [4]
  % K: 4.1^a %
  % N: 3.7^a %
  % P: 0.3^a %
  % S: 1.0^a %
  Fe ppm: 85.1^a ppm
  Mn ppm: 76.4^a ppm
  Zn ppm: 20.7^a ppm
[1]; [5]
  % K: 4.3^a %
  % N: 4.6^a %
  % P: 0.5^a %
  % S: 1.3^a %
  Fe ppm: 105^a ppm
  Mn ppm: 83.2^a ppm
  Zn ppm: 22.6^a ppm
[2]; canola seed, Control: glyphosate 0.45 kg/ha alone
  oil content: 37.7%
[2]; canola seed, Control: glyphosate alone
  percent protein: lowest value
[2]; [6]
  Number of fruits per plant: 78.5
  Seed yield: 40.9 bu/ac
  thousand seed weight: 3.1 g
[2]; control (no-Composition 2) compared to Early, Normal and Early/Late treatments
  Percent green counts: higher
[2]; no-Composition 2 (glyphosate alone) plots compared to Composition 2 treated plots
  Flowering: delayed

## N.N.O=S(=O)(O)O [AMS, Diammonium sulfate]
Velvetleaf; 2,4-D Acid (Rugged) 0.1 kg a.e/ha +2% AMS
  2,4-D Acid (% control): 73 ab %
Velvetleaf; 2,4-D DMA 0.1 kg a.e./ha +2% AMS
  2,4-D DMA (% control): 58 def %
